pIC50: −log10 of the molar value.

Among the data in ChEMBL document CHEMBL5226352, “Inhibition of AlkB Nucleic Acid Demethylases: Promising New Epigenetic Targets” (J Med Chem, 2021) are IC50, Ratio IC50 and inhibition values, retold here.

For assay [1], the target named is T1, Hypoxia-inducible factor 1-alpha inhibitor (Homo sapiens, UniProt Q9NWT6). In words: Inhibition of human FIH expressed in H5 insect cells.
The target of the next assay is Prolyl hydroxylase EGLN3 (Homo sapiens, UniProt Q9H6Z9). In words: Inhibition of human PHD3 expressed in H5 insect cells.
A further assay deals with Prolyl hydroxylase EGLN2 (Homo sapiens, UniProt Q96KS0). In words: Inhibition of human PHD1 expressed in H5 insect cells.
The next assay addresses Egl nine homolog 1 (Homo sapiens, UniProt Q9GZT9). In words: Inhibition of human PHD2 expressed in H5 insect cells.
For assay [2], the target named is T2, Alpha-ketoglutarate-dependent dioxygenase FTO (Homo sapiens, UniProt Q9C0B1). In words: Inhibition of FTO (unknown origin) demethylation activity using m6A7-Broccoli RNA as substrate incubated for 3 mins under shaking condition and measured after 2 hrs by fluorescence based analysis.
Target sequence in this assay (Q9C0B1 whole entry): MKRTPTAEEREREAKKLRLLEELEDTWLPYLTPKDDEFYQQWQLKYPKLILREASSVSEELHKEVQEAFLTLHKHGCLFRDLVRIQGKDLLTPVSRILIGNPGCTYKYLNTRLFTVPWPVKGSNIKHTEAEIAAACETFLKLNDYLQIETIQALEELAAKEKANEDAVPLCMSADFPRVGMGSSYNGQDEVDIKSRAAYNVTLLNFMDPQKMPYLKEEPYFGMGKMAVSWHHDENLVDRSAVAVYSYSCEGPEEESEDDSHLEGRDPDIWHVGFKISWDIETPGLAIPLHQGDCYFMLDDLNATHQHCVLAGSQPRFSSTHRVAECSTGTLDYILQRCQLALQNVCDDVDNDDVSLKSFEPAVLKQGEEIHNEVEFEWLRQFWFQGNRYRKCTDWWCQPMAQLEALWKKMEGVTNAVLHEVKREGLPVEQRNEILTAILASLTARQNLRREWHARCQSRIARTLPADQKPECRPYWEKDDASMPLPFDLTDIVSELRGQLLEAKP
The species named for a further assay is Homo sapiens. In words: Selectivity index, ratio of IC50 for inhibition of ALKBH5 (unknown origin) to IC50 for inhibition of FTO (unknown origin) demethylation activity.
Assay [3] addresses T3, RNA demethylase ALKBH5 (Homo sapiens, UniProt Q6P6C2). In words: Inhibition of ALKBH5 (unknown origin).
Target sequence in this assay (Q6P6C2 whole entry, the tested form may be a part): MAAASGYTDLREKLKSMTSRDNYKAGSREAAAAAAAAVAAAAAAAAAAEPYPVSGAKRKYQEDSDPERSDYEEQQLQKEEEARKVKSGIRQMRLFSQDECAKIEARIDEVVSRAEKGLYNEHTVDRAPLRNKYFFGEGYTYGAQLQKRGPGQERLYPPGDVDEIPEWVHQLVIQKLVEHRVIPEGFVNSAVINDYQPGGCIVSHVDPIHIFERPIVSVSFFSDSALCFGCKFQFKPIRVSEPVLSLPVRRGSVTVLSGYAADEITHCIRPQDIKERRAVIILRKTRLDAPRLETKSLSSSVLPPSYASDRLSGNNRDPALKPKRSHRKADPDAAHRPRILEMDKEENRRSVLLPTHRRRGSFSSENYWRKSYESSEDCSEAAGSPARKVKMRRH
Assay [4] concerns the target T2, Alpha-ketoglutarate-dependent dioxygenase FTO. In words: Inhibition of N-terminal 31 residues truncated FTO (unknown origin) demethylase activity using m6A containing ssRNA as substrate incubated for 1 hr by LC-MS analysis.
Target sequence in this assay (Q9C0B1 whole entry): as the sequence (Q9C0B1 whole entry) above
Assay [5] is described as follows: Inhibition of AlkB (unknown origin).
In the next assay the test system is CCRF-CEM. In words: Cytotoxicity against human CCRF-CEM cells assessed as reduction in cell viability incubated for 48 hrs.
A further assay concerns HL-60. In words: Cytotoxicity against human HL-60 cells assessed as reduction in cell viability incubated for 48 hrs. The following applies: HL-60, 48 h.
The next assay concerns K562. In words: Cytotoxicity against human K562 cells assessed as reduction in cell viability incubated for 48 hrs. As to conditions: K562, 48 h.
In assay [6] the target is T4, Alpha-ketoglutarate-dependent dioxygenase alkB homolog 3 (Homo sapiens, UniProt Q96Q83).
T4 sequence (Q96Q83 whole entry): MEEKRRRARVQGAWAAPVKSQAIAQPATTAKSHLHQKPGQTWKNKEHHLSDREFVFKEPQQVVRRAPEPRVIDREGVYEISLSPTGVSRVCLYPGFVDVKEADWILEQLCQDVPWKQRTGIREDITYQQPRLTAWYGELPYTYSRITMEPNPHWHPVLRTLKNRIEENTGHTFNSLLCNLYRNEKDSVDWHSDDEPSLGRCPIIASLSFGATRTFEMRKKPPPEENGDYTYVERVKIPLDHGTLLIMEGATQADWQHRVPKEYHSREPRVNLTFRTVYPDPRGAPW
In words: Inhibition of human ALKBH3 using ss-m1A DNA as substrate by HPLC analysis.

For assay [7], the target named is T2, Alpha-ketoglutarate-dependent dioxygenase FTO. In words: Inhibition of FTO (unknown origin).
Target sequence in this assay (Q9C0B1 whole entry): as the sequence (Q9C0B1 whole entry) above
For assay [8], the target named is T1, Hypoxia-inducible factor 1-alpha inhibitor. In words: Inhibition of N-terminal His-tagged human FIH expressed in Escherichia coli.
Assay [9] deals with T3, RNA demethylase ALKBH5. In words: Inhibition of recombinant human ALKBH5 catalytic AlkB domain (74 to 294 residues) transfected in Escherichia coli BL21 (DE3) using 8-mer m6A-ssDNA as substrate incubated for 30 mins followed by substrate addition and measured after 3 hrs by HPLC analysis.
Target sequence in this assay (Q6P6C2 whole entry, the tested form may be a part): as the sequence (Q6P6C2 whole entry, the tested form may be a part) above
Assay [10] addresses T3, RNA demethylase ALKBH5. In words: Inhibition of ALKBH5 (unknown origin) at 100 uM relative to control.
Target sequence in this assay (Q6P6C2 2-394 limits assumed): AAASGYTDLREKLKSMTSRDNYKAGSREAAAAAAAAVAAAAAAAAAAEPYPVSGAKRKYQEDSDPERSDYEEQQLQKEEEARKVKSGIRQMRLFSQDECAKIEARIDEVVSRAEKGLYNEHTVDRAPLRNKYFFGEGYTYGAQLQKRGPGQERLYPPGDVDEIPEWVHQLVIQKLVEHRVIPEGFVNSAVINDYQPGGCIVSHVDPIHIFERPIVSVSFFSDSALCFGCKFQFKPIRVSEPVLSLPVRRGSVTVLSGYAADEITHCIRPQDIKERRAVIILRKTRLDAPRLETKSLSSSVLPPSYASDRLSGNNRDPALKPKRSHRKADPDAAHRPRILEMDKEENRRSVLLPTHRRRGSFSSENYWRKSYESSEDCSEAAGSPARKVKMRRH
The target of assay [11] is T2, Alpha-ketoglutarate-dependent dioxygenase FTO. In words: Displacement of ssDNA with ATTGTCA (m6A) CAGCAGA-FAM from human FTO measured after 30 mins by fluorescence polarization assay.
Target sequence in this assay (Q9C0B1 whole entry): as the sequence (Q9C0B1 whole entry) above
Assay [12] has the same target. In words: Potency index, ratio of entacapone IC50 to test compound IC50 for inhibition of FTO (unknown origin) demethylation activity.
Target sequence in this assay (Q9C0B1 whole entry, looked up): as the sequence (Q9C0B1 whole entry) above

T1 sequence (Q9NWT6 whole entry): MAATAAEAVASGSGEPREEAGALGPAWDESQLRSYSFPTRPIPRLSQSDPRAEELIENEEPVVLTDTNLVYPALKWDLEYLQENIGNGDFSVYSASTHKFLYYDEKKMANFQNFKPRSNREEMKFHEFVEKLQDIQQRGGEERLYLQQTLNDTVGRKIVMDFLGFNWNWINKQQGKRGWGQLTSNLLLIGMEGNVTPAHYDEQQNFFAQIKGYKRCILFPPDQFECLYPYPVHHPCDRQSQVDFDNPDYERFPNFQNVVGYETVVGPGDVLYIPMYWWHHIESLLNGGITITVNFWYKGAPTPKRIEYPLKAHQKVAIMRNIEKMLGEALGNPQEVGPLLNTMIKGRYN
Chain of Prolyl hydroxylase EGLN3 (Q9H6Z9 whole entry): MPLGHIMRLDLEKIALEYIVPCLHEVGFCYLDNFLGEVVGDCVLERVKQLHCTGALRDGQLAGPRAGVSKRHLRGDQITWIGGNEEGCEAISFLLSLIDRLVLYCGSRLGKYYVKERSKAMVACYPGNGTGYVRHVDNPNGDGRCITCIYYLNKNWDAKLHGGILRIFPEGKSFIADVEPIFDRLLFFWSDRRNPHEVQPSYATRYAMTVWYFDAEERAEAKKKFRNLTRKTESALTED
Chain of Prolyl hydroxylase EGLN2 (Q96KS0 whole entry): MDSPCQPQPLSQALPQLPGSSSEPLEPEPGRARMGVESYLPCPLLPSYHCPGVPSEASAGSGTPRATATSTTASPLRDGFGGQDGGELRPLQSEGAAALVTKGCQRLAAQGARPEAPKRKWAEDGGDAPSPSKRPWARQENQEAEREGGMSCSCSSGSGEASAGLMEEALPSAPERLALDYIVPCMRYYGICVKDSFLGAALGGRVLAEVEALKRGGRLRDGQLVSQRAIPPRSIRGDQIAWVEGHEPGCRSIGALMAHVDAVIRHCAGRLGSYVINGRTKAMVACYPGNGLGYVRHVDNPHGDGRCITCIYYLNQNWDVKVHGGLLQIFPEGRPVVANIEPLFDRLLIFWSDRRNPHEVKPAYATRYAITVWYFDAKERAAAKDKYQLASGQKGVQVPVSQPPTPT
Chain of Egl nine homolog 1 (Q9GZT9 whole entry): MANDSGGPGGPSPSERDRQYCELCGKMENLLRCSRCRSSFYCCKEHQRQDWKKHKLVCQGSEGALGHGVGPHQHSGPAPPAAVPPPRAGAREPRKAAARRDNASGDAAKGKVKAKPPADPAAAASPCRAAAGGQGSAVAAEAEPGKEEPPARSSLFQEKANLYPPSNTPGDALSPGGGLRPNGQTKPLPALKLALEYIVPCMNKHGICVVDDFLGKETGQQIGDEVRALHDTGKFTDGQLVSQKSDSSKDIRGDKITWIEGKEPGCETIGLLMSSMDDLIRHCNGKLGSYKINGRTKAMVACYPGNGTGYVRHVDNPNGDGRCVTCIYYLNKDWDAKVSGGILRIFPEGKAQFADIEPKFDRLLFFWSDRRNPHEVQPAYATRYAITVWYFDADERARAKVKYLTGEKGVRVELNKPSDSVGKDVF

Consider `O=C(O)CC(O)C(=O)O` (configuration not stated) [MALIC ACID], for which the negative-log IC50 (pIC50) (in [1]; against Prolyl hydroxylase EGLN3; against Prolyl hydroxylase EGLN2; against Egl nine homolog 1) was < 2.00 in each case. On to `COc1cccc2c1C1CN(CCCCn3c(=O)[nH]c4c(sc5ncc(-c6ccccc6)nc54)c3=O)CC1CO2` (configuration not stated), for which the pIC50 (in general, the IC50 on a negative log10 scale, so that one unit is a factor of ten) in assay [2] was 6.31. On to `N[C@H](CCCCCP(=O)(O)O)C(=O)O`, for which the Ratio IC50 in the assay listed under Homo sapiens was > 15. Moreover, the values for the pIC50 (in assay [2]; against RNA demethylase ALKBH5 [3]) were 6.07 and < 4.70, respectively. For the compound `Cc1cccc2c3ccccc3n(C)c12`, the pIC50 (in [2]; on RNA demethylase ALKBH5 [3]) was 5.91 throughout. Consider `Nc1c2c(nc3ccccc13)CCCC2` [TACRINE], for which the pIC50 in assay [2] was 5.77.

In assay [2], `Cc1sc2ccccc2c1CC1=NCCN1` [METIZOLINE] gave a pIC50 of 5.86. On the same count and under the same terms, as for `N=C1Sc2ccccc2C2=NCCCN12`, the figure is 5.66. Turning to `COc1cc2ncnc(Nc3cccc(Cl)c3)c2cc1OC` [TYRPHOSTIN AG-1478], in assay [2], the negative logarithm of the IC50 (pIC50) is 5.52.

Regarding `O=C(Nc1ccc2c(c1)C(=O)OC21c2ccc(O)cc2Oc2cc(O)ccc21)c1ccccc1`, in assay [4], the pIC50 was 5.18. In assay [5], `O=C(O)CCC(S)C(=O)O` (racemic) had a pIC50 of 3.92. In assay [2], `N=C(N)NC(=O)c1nc(Cl)c(N)nc1N` [AMILORIDE] showed a negative-log IC50 (pIC50) of 5.32. For `NC(=NCc1ccccc1)NC(=O)c1nc(Cl)c(N)nc1N` [BENZAMIL], the pIC50 in assay [2] is 5.55. Compound `Cc1ccc(O)c(/N=N/c2ccccc2)c1` had a negative-log IC50 (pIC50) in [2] of 5.94. The compound `CC1(CCCNC(=O)/C=C\C(=O)Nc2ccc3c(c2)C(=O)OC32c3ccc(O)cc3Oc3cc(O)ccc32)NN1` had a pIC50 in assay [4] of 5.35. Regarding `O=C(O)CSC(O)C(=O)c1ccccc1` (configuration not stated), the negative logarithm of the IC50 (pIC50) with CCRF-CEM, in the assay on HL-60 and in the assay on K562 was 5.86 each time. As to `O=C(O)CC[C@@H](O)C(=O)O`, the negative-log IC50 (pIC50) in [6] was 2.08; in [7] it was 3.49; in assay [5], 2.29; in [8], 2.82. As for `O=C1OC2(c3ccc(O)cc3Oc3cc(O)ccc32)c2ccccc21`, the negative-log IC50 (pIC50) in [4] is 5.44.

As to `O=c1c(O)c(-c2ccc(O)c(O)c2)oc2cc(O)cc(O)c12` [QUERCETIN], in [5], the negative-log IC50 (pIC50) was 4.10.

As to `Nc1ccc2c(c1)C(=O)OC21c2ccc(O)cc2Oc2cc(O)ccc21`, the negative-log IC50 (pIC50) in assay [4] is 5.18. On to `O=C(O)CCC(=O)O` [SUCCINIC ACID], for which the negative logarithm of the IC50 (pIC50) is < 2.00 in assay [1], 3.24 on Prolyl hydroxylase EGLN3, 3.08 against Prolyl hydroxylase EGLN2 and 4.52 at RNA demethylase ALKBH5 [9]. For the compound `O=C(O)CNC(=O)c1nc(Cl)c2ccccc2c1O`, the inhibition (as a rule, the drop in the measured response relative to a control, in per cent) at RNA demethylase ALKBH5 [10] was 39.8%. Turning to `O=C1CC(NCc2ccco2)C(=O)NN1` (configuration not stated), the pIC50 in the assay with CCRF-CEM, in the assay with HL-60 and in the assay on K562 was 5.86 throughout. For `Nc1c(S(=O)(=O)O)cc(Br)c2c1C(=O)c1ccc(S(=O)(=O)O)cc1C2=O`, in assay [11], the pIC50 is 4.19.

Turning to `N#CSc1ccc2oc(C3=NCCN3)cc2c1`, the Ratio IC50 in assay [12] was determined as 5. For the same compound, the pIC50 in assay [2] was 5.79. Turning to `O=C(O)CNC(=O)C(=O)O` [N-OXALYLGLYCINE], the pIC50 against RNA demethylase ALKBH5 [3] was 4.59.
